Reference: PubChem BioAssay (NCI)
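Briefly, cells in 96-well plates were exposed to five compound concentrations for 48 h, and endpoints were estimated by linear interpolation. The concentration for 50% growth inhibition is given as GI50. TGI: concentration producing complete growth inhibition.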

Legend:
Assay in all cases: NCI tumour cell line growth inhibition, 48 h
786-0 renal = test system: 786-0 renal
A549 NSCLC = test system: A549 NSCLC
ACHN renal = test system: ACHN renal
BT-549 breast = test system: BT-549 breast
CAKI-1 renal = test system: CAKI-1 renal
CCRF-CEM leukemia = test system: CCRF-CEM leukemia
COLO 205 colon = test system: COLO 205 colon
DU-145 prostate = test system: DU-145 prostate
EKVX NSCLC = test system: EKVX NSCLC
HCC-2998 colon = test system: HCC-2998 colon
HCT-116 colon = test system: HCT-116 colon
HCT-15 colon = test system: HCT-15 colon
HL-60(TB) leukemia = test system: HL-60(TB) leukemia
HOP-62 NSCLC = test system: HOP-62 NSCLC
HOP-92 NSCLC = test system: HOP-92 NSCLC
HS 578T breast = test system: HS 578T breast
IGROV1 ovarian = test system: IGROV1 ovarian
K-562 leukemia = test system: K-562 leukemia
KM12 colon = test system: KM12 colon
LOX IMVI melanoma = test system: LOX IMVI melanoma
M14 melanoma = test system: M14 melanoma
MCF7 breast = test system: MCF7 breast
MDA-MB-231 breast = test system: MDA-MB-231 breast
MDA-MB-435 = test system: MDA-MB-435
MOLT-4 leukemia = test system: MOLT-4 leukemia
NCI-H226 lung = test system: NCI-H226 lung
NCI-H23 lung = test system: NCI-H23 lung
NCI-H460 lung = test system: NCI-H460 lung
NCI-H522 lung = test system: NCI-H522 lung
NCI/ADR-RES ovarian = test system: NCI/ADR-RES ovarian
OVCAR-3 ovarian = test system: OVCAR-3 ovarian
OVCAR-4 ovarian = test system: OVCAR-4 ovarian
OVCAR-5 ovarian = test system: OVCAR-5 ovarian
OVCAR-8 ovarian = test system: OVCAR-8 ovarian
PC-3 prostate = test system: PC-3 prostate
RPMI-8226 leukemia = test system: RPMI-8226 leukemia
RXF 393 renal = test system: RXF 393 renal
SF-268 CNS = test system: SF-268 CNS
SF-295 CNS = test system: SF-295 CNS
SF-539 CNS = test system: SF-539 CNS
SK-MEL-2 melanoma = test system: SK-MEL-2 melanoma
SK-MEL-28 melanoma = test system: SK-MEL-28 melanoma
SK-MEL-5 melanoma = test system: SK-MEL-5 melanoma
SK-OV-3 ovarian = test system: SK-OV-3 ovarian
SN12C renal = test system: SN12C renal
SNB-19 CNS = test system: SNB-19 CNS
SR leukemia = test system: SR leukemia
SW-620 colon = test system: SW-620 colon
T-47D breast = test system: T-47D breast
TK-10 renal = test system: TK-10 renal
U251 CNS = test system: U251 CNS
UACC-257 melanoma = test system: UACC-257 melanoma
UACC-62 melanoma = test system: UACC-62 melanoma
UO-31 renal = test system: UO-31 renal
A498 renal = test system: A498 renal
HT29 colon = test system: HT29 colon
SNB-75 CNS = test system: SNB-75 CNS

Question: Which results are given for `C=C(CN1CCc2ccccc2C1)c1ccc(C(=O)Nc2ccccc2N)cc1`?
Answer: GI50 (786-0 renal): 1.53 µM; TGI (786-0 renal): 11.6 µM; GI50 (A549 NSCLC): 2.05 µM; TGI (A549 NSCLC): > 50 µM; GI50 (ACHN renal): 1.01 µM; TGI (ACHN renal): 3.5 µM; GI50 (BT-549 breast): 1.69 µM; TGI (BT-549 breast): 6.16 µM; GI50 (CAKI-1 renal): 1.2 µM; TGI (CAKI-1 renal): 7.69 µM; GI50 (CCRF-CEM leukemia): 1.96 µM; TGI (CCRF-CEM leukemia): 12.7 µM; GI50 (COLO 205 colon): 1.52 µM; TGI (COLO 205 colon): 7.4 µM; GI50 (DU-145 prostate): 2.45 µM; TGI (DU-145 prostate): 15.7 µM; GI50 (EKVX NSCLC): 5.68 µM; TGI (EKVX NSCLC): > 50 µM; GI50 (HCC-2998 colon): 0.0899 µM; TGI (HCC-2998 colon): 0.379 µM; GI50 (HCT-116 colon): 1.93 µM; TGI (HCT-116 colon): > 23.2 µM; GI50 (HCT-15 colon): 0.94 µM; TGI (HCT-15 colon): 5.11 µM; GI50 (HL-60(TB) leukemia): 3.18 µM; TGI (HL-60(TB) leukemia): > 12.3 µM; GI50 (HOP-62 NSCLC): 1 µM; TGI (HOP-62 NSCLC): 17 µM; GI50 (HOP-92 NSCLC): 3.37 µM; TGI (HOP-92 NSCLC): 15.8 µM; GI50 (HS 578T breast): 3.7 µM; TGI (HS 578T breast): 36.5 µM; GI50 (IGROV1 ovarian): 1.54 µM; TGI (IGROV1 ovarian): 17.6 µM; GI50 (K-562 leukemia): 2.32 µM; TGI (K-562 leukemia): > 11.3 µM; GI50 (KM12 colon): 1.26 µM; TGI (KM12 colon): 4.54 µM; GI50 (LOX IMVI melanoma): 0.316 µM; TGI (LOX IMVI melanoma): 1.2 µM; GI50 (M14 melanoma): 1.73 µM; TGI (M14 melanoma): 18.4 µM; GI50 (MCF7 breast): 2.08 µM; TGI (MCF7 breast): > 31.6 µM; GI50 (MDA-MB-231 breast): 0.973 µM; TGI (MDA-MB-231 breast): 3.15 µM; GI50 (MDA-MB-435): 1.47 µM; TGI (MDA-MB-435): 4.23 µM; GI50 (MOLT-4 leukemia): 0.72 µM; TGI (MOLT-4 leukemia): 2.03 µM; GI50 (NCI-H226 lung): 1.49 µM; TGI (NCI-H226 lung): 9.2 µM; GI50 (NCI-H23 lung): 0.677 µM; GI50 (NCI-H460 lung): 3.06 µM; TGI (NCI-H460 lung): > 32 µM; GI50 (NCI-H522 lung): 0.732 µM; TGI (NCI-H522 lung): 3.72 µM; GI50 (NCI/ADR-RES ovarian): 1.11 µM; TGI (NCI/ADR-RES ovarian): > 9.95 µM; GI50 (OVCAR-3 ovarian): 1.38 µM; TGI (OVCAR-3 ovarian): 6.76 µM; GI50 (OVCAR-4 ovarian): 1.92 µM; TGI (OVCAR-4 ovarian): 19.4 µM; GI50 (OVCAR-5 ovarian): 2.64 µM; TGI (OVCAR-5 ovarian): > 20.2 µM; GI50 (OVCAR-8 ovarian): 1.09 µM; TGI (OVCAR-8 ovarian): 13.8 µM; GI50 (PC-3 prostate): 2.01 µM; TGI (PC-3 prostate): > 50 µM; GI50 (RPMI-8226 leukemia): 0.793 µM; TGI (RPMI-8226 leukemia): > 12.9 µM; GI50 (RXF 393 renal): 1.37 µM; TGI (RXF 393 renal): 4.76 µM; GI50 (SF-268 CNS): 1.87 µM; TGI (SF-268 CNS): 9.74 µM; GI50 (SF-295 CNS): 1.27 µM; TGI (SF-295 CNS): 3.53 µM; GI50 (SF-539 CNS): 1.3 µM; TGI (SF-539 CNS): 4.28 µM; GI50 (SK-MEL-2 melanoma): 3.16 µM; TGI (SK-MEL-2 melanoma): 19.1 µM; GI50 (SK-MEL-28 melanoma): 0.389 µM; TGI (SK-MEL-28 melanoma): 6.53 µM; GI50 (SK-MEL-5 melanoma): 1.61 µM; TGI (SK-MEL-5 melanoma): 6.86 µM; GI50 (SK-OV-3 ovarian): 1.08 µM; TGI (SK-OV-3 ovarian): 3.17 µM; GI50 (SN12C renal): 0.978 µM; TGI (SN12C renal): 5.32 µM; GI50 (SNB-19 CNS): 2.39 µM; TGI (SNB-19 CNS): > 50 µM; GI50 (SR leukemia): 0.484 µM; TGI (SR leukemia): > 50 µM; GI50 (SW-620 colon): 1.87 µM; TGI (SW-620 colon): > 42.8 µM; GI50 (T-47D breast): > 15.8 µM; TGI (T-47D breast): > 39 µM; GI50 (TK-10 renal): 5.74 µM; TGI (TK-10 renal): 14.8 µM; GI50 (U251 CNS): 0.911 µM; TGI (U251 CNS): 4.8 µM; GI50 (UACC-257 melanoma): 1.55 µM; TGI (UACC-257 melanoma): 16.2 µM; GI50 (UACC-62 melanoma): 0.821 µM; TGI (UACC-62 melanoma): 3.3 µM; GI50 (UO-31 renal): 2.87 µM; TGI (UO-31 renal): 8.8 µM

Question: Which TGI (786-0 renal) does the source give for `O=C(c1cc2ccccc2cc1O)N1CCCCC1` here?
Answer: > 100 µM

Question: And the TGI (A498 renal)?
Answer: 63.2 µM

Question: What about the TGI (ACHN renal) of the same compound?
Answer: > 100 µM

Question: And the TGI (BT-549 breast)?
Answer: 84.2 µM

Question: And the TGI (CAKI-1 renal)?
Answer: > 100 µM

Question: What about the TGI (CCRF-CEM leukemia) of the same compound?
Answer: 42.6 µM

Question: And the TGI (COLO 205 colon)?
Answer: > 100 µM

Question: And the TGI (DU-145 prostate)?
Answer: > 100 µM

Question: And the TGI (EKVX NSCLC)?
Answer: 78.1 µM

Question: What about the TGI (HCC-2998 colon) of the same compound?
Answer: 49.8 µM

Question: And the TGI (HCT-116 colon)?
Answer: > 100 µM

Question: And the TGI (HCT-15 colon)?
Answer: > 100 µM

Question: What about the TGI (HL-60(TB) leukemia) of the same compound?
Answer: 46.9 µM

Question: What about the TGI (HOP-62 NSCLC) of the same compound?
Answer: > 100 µM

Question: And the TGI (HOP-92 NSCLC)?
Answer: 43.3 µM

Question: What about the TGI (HS 578T breast) of the same compound?
Answer: > 100 µM

Question: And the TGI (HT29 colon)?
Answer: > 100 µM

Question: And the TGI (IGROV1 ovarian)?
Answer: 50 µM

Question: And the TGI (K-562 leukemia)?
Answer: 48.6 µM

Question: What about the TGI (KM12 colon) of the same compound?
Answer: > 100 µM

Question: What about the TGI (LOX IMVI melanoma) of the same compound?
Answer: > 100 µM

Question: And the TGI (M14 melanoma)?
Answer: 64.9 µM

Question: What about the TGI (MCF7 breast) of the same compound?
Answer: > 100 µM

Question: And the TGI (MDA-MB-231 breast)?
Answer: > 100 µM

Question: And the TGI (MDA-MB-435)?
Answer: > 100 µM

Question: What about the TGI (MOLT-4 leukemia) of the same compound?
Answer: 42.7 µM

Question: And the TGI (NCI-H226 lung)?
Answer: 85.9 µM

Question: And the TGI (NCI-H460 lung)?
Answer: > 100 µM

Question: What about the TGI (NCI/ADR-RES ovarian) of the same compound?
Answer: 94.3 µM

Question: What about the TGI (OVCAR-4 ovarian) of the same compound?
Answer: > 100 µM

Question: What about the TGI (OVCAR-8 ovarian) of the same compound?
Answer: > 100 µM

Question: What about the TGI (PC-3 prostate) of the same compound?
Answer: > 100 µM

Question: What about the TGI (RPMI-8226 leukemia) of the same compound?
Answer: 56.3 µM

Question: What about the TGI (RXF 393 renal) of the same compound?
Answer: > 100 µM

Question: What about the TGI (SF-268 CNS) of the same compound?
Answer: > 100 µM

Question: What about the TGI (SF-295 CNS) of the same compound?
Answer: > 100 µM

Question: And the TGI (SF-539 CNS)?
Answer: > 100 µM

Question: What about the TGI (SK-MEL-2 melanoma) of the same compound?
Answer: 46.5 µM

Question: And the TGI (SK-MEL-28 melanoma)?
Answer: > 100 µM

Question: What about the TGI (SK-MEL-5 melanoma) of the same compound?
Answer: 54.6 µM

Question: What about the TGI (SK-OV-3 ovarian) of the same compound?
Answer: > 100 µM

Question: What about the TGI (SNB-19 CNS) of the same compound?
Answer: > 100 µM

Question: And the TGI (SNB-75 CNS)?
Answer: > 100 µM

Question: What about the TGI (SR leukemia) of the same compound?
Answer: 55.9 µM

Question: What about the TGI (SW-620 colon) of the same compound?
Answer: > 100 µM

Question: And the TGI (T-47D breast)?
Answer: > 100 µM

Question: What about the TGI (TK-10 renal) of the same compound?
Answer: > 100 µM

Question: What about the TGI (U251 CNS) of the same compound?
Answer: > 100 µM

Question: What about the TGI (UACC-257 melanoma) of the same compound?
Answer: > 100 µM

Question: And the TGI (UACC-62 melanoma)?
Answer: > 100 µM

Question: What about the TGI (UO-31 renal) of the same compound?
Answer: > 100 µM
